Measured values taken from article PMC11062894, “Protein-based bandpass filters for controlling cellular signaling with chemical inputs” (Nature Chemical Biology, 2023).

System: GEMS receptors with CBPvene (Bcl2–LD3 and Bcl2high variants), STAT3-driven SEAP in HEK293T cells
Experiment: GEMS SEAP reporter assay, CBPvene (Bcl2high, LD3-v and Bcl2-v variants) with venetoclax
Assay type: cell-based
[1] = Supp Fig 10b, Bcl2-v4, venetoclax 316 nM
[2] = Supp Fig 10b, Bcl2-v4, venetoclax 1000 nM
[3] = Supp Fig 10b, Bcl2-v4, venetoclax 3160 nM
[4] = Supp Fig 10b, Bcl2-v4, venetoclax 10000 nM
[5] = Supp Fig 10b, Bcl2-v5, venetoclax 1 nM
[6] = Supp Fig 10b, Bcl2-v5, venetoclax 3.16 nM
[7] = Supp Fig 10b, Bcl2-v5, venetoclax 10 nM
[8] = Supp Fig 10b, Bcl2-v5, venetoclax 31.6 nM
[9] = Supp Fig 10b, Bcl2-v5, venetoclax 100 nM
[10] = Supp Fig 10b, Bcl2-v5, venetoclax 316 nM
[11] = Supp Fig 10b, Bcl2-v5, venetoclax 1000 nM
[12] = Supp Fig 10b, Bcl2-v5, venetoclax 3160 nM
[13] = Supp Fig 10b, Bcl2-v5, venetoclax 10000 nM
[14] = Supp Fig 10b, Bcl2-v6, venetoclax 1 nM
[15] = Supp Fig 10b, Bcl2-v6, venetoclax 3.16 nM
[16] = Supp Fig 10b, Bcl2-v6, venetoclax 10 nM
[17] = Supp Fig 10b, Bcl2-v6, venetoclax 31.6 nM
[18] = Supp Fig 10b, Bcl2-v6, venetoclax 100 nM
[19] = Supp Fig 10b, Bcl2-v6, venetoclax 316 nM
[20] = Supp Fig 10b, Bcl2-v6, venetoclax 1000 nM
[21] = Supp Fig 10b, Bcl2-v6, venetoclax 3160 nM
[22] = Supp Fig 10b, Bcl2-v6, venetoclax 10000 nM
[23] = Supp Fig 10b, Bcl2, venetoclax 1 nM
[24] = Supp Fig 10b, Bcl2, venetoclax 3.16 nM
[25] = Supp Fig 10b, Bcl2, venetoclax 10 nM
[26] = Supp Fig 10b, Bcl2, venetoclax 31.6 nM
[27] = Supp Fig 10b, Bcl2, venetoclax 100 nM
[28] = Supp Fig 10b, Bcl2, venetoclax 316 nM
[29] = Supp Fig 10b, Bcl2, venetoclax 1000 nM
[30] = Supp Fig 10b, Bcl2, venetoclax 3160 nM
[31] = Supp Fig 10b, Bcl2, venetoclax 10000 nM
[32] = Supp Fig 10c, Bcl2-v1, venetoclax 1 nM
[33] = Supp Fig 10c, Bcl2-v1, venetoclax 3.16 nM
[34] = Supp Fig 10c, Bcl2-v2, venetoclax 1 nM
[35] = Supp Fig 10c, Bcl2-v2, venetoclax 3.16 nM
[36] = Supp Fig 10c, Bcl2-v3, venetoclax 1 nM
[37] = Supp Fig 10c, Bcl2-v3, venetoclax 3.16 nM
[38] = Supp Fig 10c, Bcl2-v5, venetoclax 1 nM
[39] = Supp Fig 10c, Bcl2-v5, venetoclax 3.16 nM
[40] = Supp Fig 10c, Bcl2-v6, venetoclax 1 nM
[41] = Supp Fig 10c, Bcl2, venetoclax 1 nM
[42] = Supp Fig 10c, Bcl2, venetoclax 3.16 nM
[43] = SuppFigure 8a, LD3, venetoclax 1 nM
[44] = SuppFigure 8a, LD3, venetoclax 3.16 nM
[45] = SuppFigure 8a, LD3, venetoclax 100 nM
[46] = SuppFigure 8a, LD3, venetoclax 316 nM
[47] = SuppFigure 8a, LD3, venetoclax 1000 nM
[48] = SuppFigure 8a, LD3, venetoclax 3160 nM
[49] = SuppFigure 8a, LD3, venetoclax 10000 nM
[50] = SuppFigure 8a, LD3v1, venetoclax 1 nM
[51] = SuppFigure 8a, LD3v1, venetoclax 3.16 nM
[52] = SuppFigure 8a, LD3v1, venetoclax 100 nM
[53] = SuppFigure 8a, LD3v1, venetoclax 316 nM
[54] = SuppFigure 8a, LD3v1, venetoclax 1000 nM
[55] = SuppFigure 8a, LD3v1, venetoclax 3160 nM
[56] = SuppFigure 8a, LD3v1, venetoclax 10000 nM
[57] = SuppFigure 8a, LD3v2, venetoclax 1 nM
[58] = SuppFigure 8a, LD3v2, venetoclax 3.16 nM
[59] = SuppFigure 8a, LD3v2, venetoclax 100 nM
[60] = SuppFigure 8a, LD3v2, venetoclax 316 nM
[61] = SuppFigure 8a, LD3v2, venetoclax 1000 nM
[62] = SuppFigure 8a, LD3v2, venetoclax 3160 nM
[63] = SuppFigure 8a, LD3v2, venetoclax 10000 nM
[64] = SuppFigure 8a, LD3v3, venetoclax 1 nM
[65] = SuppFigure 8a, LD3v3, venetoclax 3.16 nM
[66] = SuppFigure 8a, LD3v3, venetoclax 100 nM
[67] = SuppFigure 8a, LD3v3, venetoclax 316 nM
[68] = SuppFigure 8a, LD3v3, venetoclax 1000 nM
[69] = SuppFigure 8a, LD3v3, venetoclax 3160 nM
[70] = SuppFigure 8a, LD3v3, venetoclax 10000 nM
[71] = SuppFigure 8b, LD3, venetoclax 1 nM
[72] = SuppFigure 8b, LD3, venetoclax 3.16 nM

In the case of `CC1(C)CCC(CN2CCN(c3ccc(C(=O)NS(=O)(=O)c4ccc(NCC5CCOCC5)c([N+](=O)[O-])c4)c(Oc4cnc5[nH]ccc5c4)c3)CC2)=C(c2ccc(Cl)cc2)C1` [Venetoclax], the “SEAP normalized (max=100)” value (Supp Fig 10b, Bcl2-v4, venetoclax 100 nM) is reported as 78.5961, the SEAP [1] is reported as 14.4979 and the “SEAP normalized (max=100)” value [1] is reported as 43.8128. The SEAP [2] was 9.936, the “SEAP normalized (max=100)” value [2] was 30.0279 and the SEAP [3] was 8.423. The “SEAP normalized (max=100)” value [3] was 25.4557, the SEAP [4] was 7.624 and the “SEAP normalized (max=100)” value [4] was 23.0384. For the same compound, the SEAP [5] was 45.7217, the “SEAP normalized (max=100)” value [5] was 92.4038 and the SEAP [6] was 49.4803. The “SEAP normalized (max=100)” value [6] was 100, the SEAP [7] was 40.0805 and the “SEAP normalized (max=100)” value [7] was 81.0029. For the same compound, the SEAP [8] was 46.2116, the “SEAP normalized (max=100)” value [8] was 93.3938 and the SEAP [9] was 42.8958. For the same compound, the “SEAP normalized (max=100)” value [9] was 86.6926, the SEAP [10] was 30.6164 and the “SEAP normalized (max=100)” value [10] was 61.8759. The SEAP [11] was 14.0666, the “SEAP normalized (max=100)” value [11] was 28.4288 and the SEAP [12] was 10.2265. The “SEAP normalized (max=100)” value [12] was 20.6679, the SEAP [13] was 6.4792 and the “SEAP normalized (max=100)” value [13] was 13.0945. The SEAP [14] was 50.15, the “SEAP normalized (max=100)” value [14] was 13.184 and the SEAP [15] was 55.0335. The “SEAP normalized (max=100)” value [15] was 14.4678, the SEAP [16] was 53.9332 and the “SEAP normalized (max=100)” value [16] was 14.1785. The SEAP [17] was 141.748, the “SEAP normalized (max=100)” value [17] was 37.2641 and the SEAP [18] was 380.387. The “SEAP normalized (max=100)” value [18] was 100, the SEAP [19] was 330.205 and the “SEAP normalized (max=100)” value [19] was 86.8077. For the same compound, the SEAP [20] was 170.706, the “SEAP normalized (max=100)” value [20] was 44.877 and the SEAP [21] was 26.4901. The “SEAP normalized (max=100)” value [21] was 6.964, the SEAP [22] was 10.3289 and the “SEAP normalized (max=100)” value [22] was 2.715. The SEAP [23] was 34.2584, the “SEAP normalized (max=100)” value [23] was 5.865 and the SEAP [24] was 39.5038. The “SEAP normalized (max=100)” value [24] was 6.763, the SEAP [25] was 88.7679 and the “SEAP normalized (max=100)” value [25] was 15.1973. The SEAP [26] was 235.479, the “SEAP normalized (max=100)” value [26] was 40.3146 and the SEAP [27] was 448.604. The “SEAP normalized (max=100)” value [27] was 76.8023, the SEAP [28] was 584.102 and the “SEAP normalized (max=100)” value [28] was 100. For the same compound, the SEAP [29] was 347.384, the “SEAP normalized (max=100)” value [29] was 59.4733 and the SEAP [30] was 20.111. For the same compound, the “SEAP normalized (max=100)” value [30] was 3.443, the SEAP [31] was 12.4887 and the “SEAP normalized (max=100)” value [31] was 2.138. The SEAP [32] was 26.1238, the “SEAP normalized (max=100)” value [32] was 100 and the SEAP [33] was 24.5196. For the same compound, the “SEAP normalized (max=100)” value [33] was 93.8591, the SEAP [34] was 41.9684 and the “SEAP normalized (max=100)” value [34] was 37.8578. For the same compound, the SEAP [35] was 39.8265, the “SEAP normalized (max=100)” value [35] was 35.9258 and the SEAP [36] was 35.0656. For the same compound, the “SEAP normalized (max=100)” value [36] was 94.2276, the SEAP [37] was 34.981 and the “SEAP normalized (max=100)” value [37] was 94.0003. For the same compound, the SEAP [38] was 25.6864, the “SEAP normalized (max=100)” value [38] was 99.6735 and the SEAP [39] was 25.7705. The “SEAP normalized (max=100)” value [39] was 100, the SEAP [40] was 44.5051 and the “SEAP normalized (max=100)” value [40] was 24.1282. For the same compound, the SEAP [41] was 9.631, the “SEAP normalized (max=100)” value [41] was 6.451 and the SEAP [42] was 8.848. For the same compound, the “SEAP normalized (max=100)” value [42] was 5.926, the “Normalized data (SEAP)” value [43] was 18.1283 and the “Raw data (SEAP)” value [43] was 14.9284. For the same compound, the “Normalized data (SEAP)” value [44] was 15.4665, the “Raw data (SEAP)” value [44] was 12.7365 and the “Normalized data (SEAP)” value [45] was 62.0224. For the same compound, the “Raw data (SEAP)” value [45] was 51.0746, the “Normalized data (SEAP)” value [46] was 79.6476 and the “Raw data (SEAP)” value [46] was 65.5888. The “Normalized data (SEAP)” value [47] was 100, the “Raw data (SEAP)” value [47] was 82.3488 and the “Normalized data (SEAP)” value [48] was 64.1557. For the same compound, the “Raw data (SEAP)” value [48] was 52.8314, the “Normalized data (SEAP)” value [49] was 26.7094 and the “Raw data (SEAP)” value [49] was 21.9948. For the same compound, the “Normalized data (SEAP)” value [50] was 73.3263, the “Raw data (SEAP)” value [50] was 13.9463 and the “Normalized data (SEAP)” value [51] was 77.9742. The “Raw data (SEAP)” value [51] was 14.8303, the “Normalized data (SEAP)” value [52] was 93.9945 and the “Raw data (SEAP)” value [52] was 17.8773. The “Normalized data (SEAP)” value [53] was 100, the “Raw data (SEAP)” value [53] was 19.0195 and the “Normalized data (SEAP)” value [54] was 92.9583. The “Raw data (SEAP)” value [54] was 17.6802, the “Normalized data (SEAP)” value [55] was 77.7035 and the “Raw data (SEAP)” value [55] was 14.7788. For the same compound, the “Normalized data (SEAP)” value [56] was 63.3664, the “Raw data (SEAP)” value [56] was 12.052 and the “Normalized data (SEAP)” value [57] was 16.5083. The “Raw data (SEAP)” value [57] was 13.4033, the “Normalized data (SEAP)” value [58] was 16.1655 and the “Raw data (SEAP)” value [58] was 13.125. For the same compound, the “Normalized data (SEAP)” value [59] was 55.5208, the “Raw data (SEAP)” value [59] was 45.078 and the “Normalized data (SEAP)” value [60] was 68.4407. The “Raw data (SEAP)” value [60] was 55.5679, the “Normalized data (SEAP)” value [61] was 100 and the “Raw data (SEAP)” value [61] was 81.1913. For the same compound, the “Normalized data (SEAP)” value [62] was 59.661, the “Raw data (SEAP)” value [62] was 48.4395 and the “Normalized data (SEAP)” value [63] was 19.9233. The “Raw data (SEAP)” value [63] was 16.176, the “Normalized data (SEAP)” value [64] was 79.8276 and the “Raw data (SEAP)” value [64] was 14.5214. The “Normalized data (SEAP)” value [65] was 77.8421, the “Raw data (SEAP)” value [65] was 14.1602 and the “Normalized data (SEAP)” value [66] was 89.5467. For the same compound, the “Raw data (SEAP)” value [66] was 16.2894, the “Normalized data (SEAP)” value [67] was 90.6522 and the “Raw data (SEAP)” value [67] was 16.4905. For the same compound, the “Normalized data (SEAP)” value [68] was 100, the “Raw data (SEAP)” value [68] was 18.191 and the “Normalized data (SEAP)” value [69] was 92.956. For the same compound, the “Raw data (SEAP)” value [69] was 16.9096, the “Normalized data (SEAP)” value [70] was 54.34 and the “Raw data (SEAP)” value [70] was 9.885. For the same compound, the “Normalized data (SEAP)” value [71] was 3.308, the “Raw data (SEAP)” value [71] was 13.9036 and the “Normalized data (SEAP)” value [72] was 3.395. For the same compound, the “Raw data (SEAP)” value [72] was 14.2688.
